{"source": "paper PMC9643456", "about": "“Matching amino acids membrane preference profile to improve activity of antimicrobial peptides” (Communications Biology, 2022)", "key": {"E. coli ML35": {"tested_on": "E. coli ML35", "settings": "ML35, 18 h", "procedure": "To assess antimicrobial activity, the MIC50 and MIC90 were measured using broth microdilution following CLSI guidelines. […] Each experiment was performed in triplicate. Meropenem (Sigma, Darmstadt, Germany) and colistin were used as control antibiotics. Cation-adjusted Mueller–Hinton broth (CAMHB) (Becton, Dickinson and Company, Franklin Lakes, USA) with supplied calcium (50 mg/L) and magnesium (10 mg/L) was used for the CLSI-test condition. Bacteria in midlog phase and peptides were separately diluted in CAMHB. The bacteria and peptide solutions were then mixed in 96-well polyethylene plates (SPL, Gyeonggi-do, Korea) and incubated for 18 h at 37 °C. The final concentration for bacteria was 5 × 10^5 CFU/ml. […] The MIC was defined to be the lowest concentration of peptide without visible turbidity by comparing with control antibiotics with the unaided eye. […] MICs in albumin and acetic acid solutions were measured using the same protocol but with 0.2% bovine serum albumin (Bovogen, Keilor, Australia), 0.01% acetic acid (Merck, New Jersey, USA), and CAMHB with both calcium and magnesium. In addition, MICs used in the antibiotic resistance acquisition test, the outer–inner membrane permeation test, and the transmembrane potential test and for FE-SEM were individually determined. […] Inhibitory activity unidentifiable by direct observation was determined by counting the CFUs. […]"}, "A. baumannii KCCM 40203": {"tested_on": "A. baumannii KCCM 40203", "assay": "microbe, parasite or virus in culture", "settings": "bacteria OD 0.01, CAMHB", "procedure": "To assess antimicrobial activity, the MIC50 and MIC90 were measured using broth microdilution following CLSI guidelines. […] Each experiment was performed in triplicate. Meropenem (Sigma, Darmstadt, Germany) and colistin were used as control antibiotics. Cation-adjusted Mueller–Hinton broth (CAMHB) (Becton, Dickinson and Company, Franklin Lakes, USA) with supplied calcium (50 mg/L) and magnesium (10 mg/L) was used for the CLSI-test condition. Bacteria in midlog phase and peptides were separately diluted in CAMHB. The bacteria and peptide solutions were then mixed in 96-well polyethylene plates (SPL, Gyeonggi-do, Korea) and incubated for 18 h at 37 °C. The final concentration for bacteria was 5 × 10^5 CFU/ml. […] The MIC was defined to be the lowest concentration of peptide without visible turbidity by comparing with control antibiotics with the unaided eye. […] Each experiment was performed in triplicate. MICs in albumin and acetic acid solutions were measured using the same protocol but with 0.2% bovine serum albumin (Bovogen, Keilor, Australia), 0.01% acetic acid (Merck, New Jersey, USA), and CAMHB with both calcium and magnesium. In addition, MICs used in the antibiotic resistance acquisition test, the outer–inner membrane permeation test, and the transmembrane potential test and for FE-SEM were individually determined. The final bacterial concentrations used were as follows: for resistance acquisition, optical density (OD) 0.01; for outer–inner membrane permeability assays (LB), OD 0.1; for the transmembrane potential test, 1 × 10^8 CFU/ml (OD 0.171); […]. Inhibitory activity unidentifiable by direct observation was determined by counting the CFUs. Each experiment was performed at least twice.\n(§1) A. baumannii (KCCM 40203) and S. aureus (KCTC 1621) were selected as drug-sensitive bacteria. Mutation-susceptible tetracycline (an antibiotic that targets ribosomes) (Sigma, Darmstadt, Germany) and ofloxacin (an antibiotic that targets DNA gyrase) (Sigma, Darmstadt, Germany), mutation-resistant colistin (an antibiotic that targets lipopolysaccharide) (Sigma, Darmstadt, Germany) and vancomycin (an antibiotic that targets peptidoglycan pentapeptide) (Sigma, Darmstadt, Germany) were used as control antibiotics. The MIC for each antibiotic against bacteria (at OD 0.01) was measured. […] The MIC for each passage was confirmed by additional broth microdilutions under CLSI guidelines. Resistance acquisition was induced for 30 days (30 passages), and each MIC value was confirmed by an independent MIC test against bacteria at each passage."}, "MDR A. baumannii": {"tested_on": "MDR A. baumannii", "assay": "Killing kinetics in the SEM sample", "format": "cell-based, Acinetobacter baumannii", "settings": "2 × 10^8 cfu/ml, x1 MIC, PBS, after 4 hours", "procedure": "(§2) FE-SEM was used to observe peptide-induced changes in bacterial morphology. MDR A. baumannii (ATCC BAA-1605) and MDR S. aureus (KCCM 40510) were cultured in CAMHB to log phase and washed in PBS. Bacteria and peptides were diluted in PBS, after which aliquots of bacteria (50 μl) and peptides (50 μl) were mixed to yield the following final concentrations: MDR A. baumannii or MDR S. aureus, 2 × 10^8 CFU/ml; WCopW29, 2.5 μM. Mixtures were deposited onto cover glass slips and incubated for 0 min, 15 min, 30 min, 1 h or 4 h. After incubation, the bacteria were fixed with paraformaldehyde (4%) and osmium tetroxide (1%) (Sigma, Darmstadt, Germany), washed with water, and freeze-dried overnight. Freeze-dried samples were Pt-coated and placed in an S-4700, EMAX System field emission scanning electron microscope (Hitachi, Tokyo, Japan). Bacterial morphologies were imaged and recorded on video at magnifications of 10,000× and 25,000×.\n(§3) Antimicrobial kinetics for each peptide and each bacterial strain were assessed using FE-SEM. […] Each experiment was performed in triplicate."}, "MDR S. aureus": {"tested_on": "MDR S. aureus", "assay": "Killing kinetics in the SEM sample", "format": "cell-based, Staphylococcus aureus", "settings": "2 × 10^8 cfu/ml, x1 MIC, PBS, after 4 hours", "procedure": "as §2, §3"}, "[1]": {"tested_on": "A. baumannii (KCCM 40203) and S. aureus (KCTC 1621)", "settings": "MIC and sub-MIC exposure for 30 days (30 passages)", "description": "as §1"}, "K. pneumonia strains": {"tested_on": "K. pneumonia strains", "assay": "microbe, parasite or virus in culture"}, "[2]": {"tested_on": "colistin-resistant A. baumannii", "assay": "In vivo activity, survival of infected mice", "settings": "mouse model infected with colistin-resistant A. baumannii", "procedure": "Female BALB/c mice (8-week old; n = 10) were purchased from orientbio (Gyeonggido, Republic of Korea) and fed under standardized environmental conditions for 1 week to be used to estimate time-dependent mouse survival rates. After inducing neutropenia by intraperitoneal injection of cyclophosphamide (150 mg/kg; Sigma), MDR S. aureus (KCCM 40510), MDR A. baumannii (colistin-resistant strain) or MDR K. pneumonia (colistin-resistant strain, NCCP 16125) was diluted in PBS and subcutaneously injected into mice (S. aureus, 1.5 × 10^8 CFU/ml; A. baumannii, 1 × 10^8 CFU/ml; K. pneumonia, 1 × 10^9 CFU/ml). After bacterial infection, 100 μl of WCopW43 peptide dissolved in distilled water (10 mg/ml) were injected (50 mg/kg) into each infected site, and survival was monitored every 12 h for 7 days. For A. baumannii infection, mice were intraperitoneally injected with mucin ([…], 1% in PBS, 300 μl) to suppress macrophages, and A. baumannii cells were incubated with mucin (1% in PBS) for 3 h before subcutaneous injection of 2 × 10^8 CFU/ml (0.2% mucin in PBS)[71]–[74]. Survival rates were calculated using the formula: 100% × (number of surviving mice/ten mice). One day after WCopW43 (50 mg/kg) injection, four mice were randomly selected and sacrificed by CO2 inhalation. […] Homogenized samples were spread onto MH agar plates, and CFU values were determined after incubation overnight at 37 °C."}, "[3]": {"settings": "100 mg/kg s.c. daily for 3 days, n = 3; BUN and creatinine", "quoted_text": "To assess nephrotoxicity, mice (female BALB/c, 8 weeks old; n = 3) were subcutaneously administered WCopW43 (100 mg/kg) or PBS (controls) three times (once every 24 h). Blood samples were then collected from the retroorbital veins into heparin-coated glass capillary tubes (Kimble Chase, NJ, USA), which were then centrifuged at 4000 rpm. The serum was collected and analyzed using a blood urea nitrogen (BUN) assay kit (Arbor Assay, Ann Arbor, USA) and a creatinine assay kit (Arbor Assay). Levels of BUN and blood creatinine clearance were measured using a SpectraMax plate spectrophotometer (Molecular Devices) at 450 nm and 490 nm, respectively."}}, "note": "Square brackets hold non-standard residues; d marks the D form. Peptide text beside a SMILES is read from it.", "data": [{"compound": "CC[C@@H](C)[C@@H](NC(=O)[C@@H](Cc1c[nH]c2ccccc12)NC(=O)[C@H](NC(=O)[C@@H](CC(C)C)NC(=O)[C@H](N)Cc1c[nH]c2ccccc12)C(C)C)C(=O)N[C@H](Cc1c[nH]c2ccccc12)C(=O)N[C@H](CCCNC(=N)N)C(=O)N[C@H](CCCNC(=N)N)C(=O)N[C@H](CCCNC(=N)N)C(N)=O", "note": "[WCopW29] (H-[dW][dL][dV][dW][dI][dW][dR][dR][dR]-NH2)", "values": [{"measurement": "MIC at OM-IM permeation condition, E. coli ML35", "setting": "E. coli ML35", "result": 5, "unit": "µM"}, {"measurement": "MIC at resistance induction condition, A. baumannii KCCM 40203", "setting": "A. baumannii KCCM 40203", "result": 1.25, "unit": "µM"}, {"measurement": "Loss of colony forming", "setting": "MDR A. baumannii", "result": 99, "unit": "%"}, {"measurement": "Loss of colony forming", "setting": "MDR S. aureus", "result": 90, "unit": "%"}, {"measurement": "MIC during resistance acquisition", "setting": "[1]", "result": "stable over a period of 30 days"}]}, {"compound": "CC[C@@H](C)[C@@H](NC(=O)[C@@H](Cc1c[nH]c2ccccc12)NC(=O)[C@@H](CCCNC(=N)N)NC(=O)[C@@H](CCCNC(=N)N)NC(=O)[C@H](N)CCCNC(=N)N)C(=O)N[C@H](Cc1c[nH]c2ccccc12)C(=O)N[C@@H](C(=O)N[C@@H](C(=O)N[C@H](Cc1c[nH]c2ccccc12)C(=O)N[C@H](CCCCN)C(N)=O)[C@H](C)CC)C(C)C", "note": "[WCopW43] (H-[dR][dR][dR][dW][dI][dW][dV][dI][dW][dK]-NH2)", "values": [{"measurement": "MIC, K. pneumonia NCCP 15782", "setting": "K. pneumonia strains; 18 h", "result": 1.25, "unit": "µM"}, {"measurement": "MIC, K. pneumonia NCCP 15864", "setting": "K. pneumonia strains; 18 h", "result": 1.25, "unit": "µM"}, {"measurement": "MIC, K. pneumonia NCCP 15866", "setting": "K. pneumonia strains; 18 h", "result": 2.5, "unit": "µM"}, {"measurement": "MIC, K. pneumonia NCCP 16052", "setting": "K. pneumonia strains; 18 h", "result": 2.5, "unit": "µM"}, {"measurement": "MIC, K. pneumonia NCCP 16124", "setting": "K. pneumonia strains; 18 h", "result": 1.25, "unit": "µM"}, {"measurement": "MIC, K. pneumonia NCCP 16125", "setting": "K. pneumonia strains; 18 h", "result": 2.5, "unit": "µM"}, {"measurement": "MIC, K. pneumonia NCCP 16128", "setting": "K. pneumonia strains; 18 h", "result": 5, "unit": "µM"}, {"measurement": "MIC, K. pneumonia NCCP 16208", "setting": "K. pneumonia strains; 18 h", "result": 1.25, "unit": "µM"}, {"measurement": "MIC, K. pneumonia NCCP 16212", "setting": "K. pneumonia strains; 18 h", "result": 2.5, "unit": "µM"}, {"measurement": "MIC, K. pneumonia NCCP 16213", "setting": "K. pneumonia strains; 18 h", "result": 1.25, "unit": "µM"}, {"measurement": "Survival rate", "setting": "[2]", "result": 100, "unit": "%"}, {"measurement": "MIC during resistance acquisition", "setting": "[1]", "result": "emergence of WCopW43 resistance is suppressed"}, {"measurement": "Nephrotoxicity indicators", "setting": "[3]", "result": "non-nephrotoxic"}]}, {"compound": "Colistin", "values": [{"measurement": "MIC, K. pneumonia NCCP 15782", "setting": "K. pneumonia strains; CLSI", "result": 1.25, "unit": "µM"}, {"measurement": "MIC, K. pneumonia NCCP 15864", "setting": "K. pneumonia strains; CLSI", "result": 0.63, "unit": "µM"}, {"measurement": "MIC, K. pneumonia NCCP 15866", "setting": "K. pneumonia strains; CLSI", "result": 0.63, "unit": "µM"}, {"measurement": "MIC, K. pneumonia NCCP 16052", "setting": "K. pneumonia strains; CLSI", "result": 0.63, "unit": "µM"}, {"measurement": "MIC, K. pneumonia NCCP 16124", "setting": "K. pneumonia strains; CLSI", "result": 20, "unit": "µM"}, {"measurement": "MIC, K. pneumonia NCCP 16128", "setting": "K. pneumonia strains; CLSI", "result": 5, "unit": "µM"}, {"measurement": "MIC, K. pneumonia NCCP 16208", "setting": "K. pneumonia strains; CLSI", "result": "< 0.31", "unit": "µM"}, {"measurement": "MIC, K. pneumonia NCCP 16212", "setting": "K. pneumonia strains; CLSI", "result": "< 0.31", "unit": "µM"}, {"measurement": "MIC, K. pneumonia NCCP 16213", "setting": "K. pneumonia strains; CLSI", "result": 0.63, "unit": "µM"}, {"measurement": "MIC at resistance induction condition, A. baumannii KCCM 40203", "setting": "A. baumannii KCCM 40203", "result": 1.25, "unit": "µM"}, {"measurement": "Survival rate", "setting": "[2]", "result": 90, "unit": "%"}]}]}
